The source of these data is PubChem BioAssay AID588808 (Broad Institute, 2011).

Calls of active or inactive are those of the source.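 How the source made its calls: active means Aurora B inhibition with potency within ten times the top dose, in every repeat test; inconclusive means repeat tests disagree in their calls; inactive means every repeat test inactive.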

One may read the AC50 as the concentration giving half of the maximal activity seen.

In one experiment the target is Aurora kinase B (Homo sapiens) (UniProt Q96GD4). In words: AURKB enzyme activity inhibitors – biochemical, scintillation, dry powder, set 3, counter-screen for STK33 inhibitor project, dose response (AID 588808). Conditions: Recombinant Aurora B, 33P-ATP filter-binding scintillation.
Chain of Aurora kinase B (Homo sapiens) (Q96GD4 whole entry, looked up): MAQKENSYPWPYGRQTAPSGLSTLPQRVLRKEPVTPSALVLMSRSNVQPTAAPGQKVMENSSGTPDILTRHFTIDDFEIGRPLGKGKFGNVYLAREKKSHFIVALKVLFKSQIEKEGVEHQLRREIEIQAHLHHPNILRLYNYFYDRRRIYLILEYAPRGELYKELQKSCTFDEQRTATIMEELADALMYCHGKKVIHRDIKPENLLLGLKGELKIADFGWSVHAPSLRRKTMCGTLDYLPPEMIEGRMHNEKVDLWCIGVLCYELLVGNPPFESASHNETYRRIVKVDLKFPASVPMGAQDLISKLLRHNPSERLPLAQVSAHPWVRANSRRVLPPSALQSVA
`CC(C)c1ccc(NC(=O)c2cccs2)c(-c2nc3ccccc3[nH]c2=O)c1`: the AC50 was 7.79 µM.

The experiment is the same for the next values; noted with them: Recombinant Aurora B, 33P-ATP filter-binding scintillation; at 10 µM (top of the series).
Take `O=C(Nc1ccccc1-c1nc2ccccc2[nH]c1=O)c1ccccn1`: the “activity change, negative = inhibition” value is “inactive”.
The same measure, in the same setting: with `O=C(Nc1ccc(F)cc1-c1nc2ccccc2[nH]c1=O)c1cccs1` the entry was “inactive”.
The same measure, in the same setting: with `O=C(Nc1ccc(OC(F)(F)F)cc1-c1nc2ccccc2[nH]c1=O)c1cccs1` the entry was “inactive”.
The same measure, in the same setting: the result for `COc1ccc(NC(=O)c2cccs2)c(-c2nc3ccccc3[nH]c2=O)c1` reads “inactive”.
For the molecule `O=C(Nc1cc(Cl)ccc1-c1nc2ccccc2[nH]c1=O)c1cccs1`, the “activity change, negative = inhibition” value was “inactive”.
The same measure, in the same setting: with `O=C(Nc1cc(F)ccc1-c1nc2ccccc2[nH]c1=O)c1cccs1` the entry was “inactive”; with `O=C(Nc1ccc(Cl)cc1-c1nc2ccccc2[nH]c1=O)c1cccs1`, “inactive”.
Still for that read-out and setting: with `COc1ccc(C(=O)Nc2ccccc2-c2nc3ccccc3[nH]c2=O)cc1` the entry was “inactive”; with `O=C(Nc1ccccc1-c1nc2ccccc2[nH]c1=O)c1cccs1`, “inactive”.
Same read-out and setting: the result for `O=C(Nc1ccccc1-c1nc2ccccc2[nH]c1=O)c1cccc(Cl)c1` reads “inactive”.
With `O=C(Nc1ccccc1-c1nc2ccccc2[nH]c1=O)c1ccc(F)cc1`, the “activity change, negative = inhibition” value is “inactive”.
In the case of `O=C(Nc1ccccc1-c1nc2ccccc2[nH]c1=O)c1cccnc1`, the “activity change, negative = inhibition” value is “inactive”.
